What was measured:
Assay in all cases: relative viability (nuclei count vs DMSO), 5 days (fraction); higher = more cells survive
[1] = system: HCC-78
How it was run: (§1)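 Lung cancer cell lines, seeded in 1536-well plates, were treated the following day by pin tool with a single drug or with five library-drug doses (not always all listed) in √10 steps on top of a fixed anchor-drug dose. Cells were fixed and nuclei stained in one step after 5 days, and nuclei were counted. Relative viability is the nuclei count for treated wells divided by that for vehicle wells, reported as medians of duplicate plates.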

[2] = system: NCI-H647
How it was run: as §1

[3] = system: ChaGo-K-1
How it was run: as §1

[4] = system: HCC-827
How it was run: as §1

[5] = system: EPLC-272H
How it was run: as §1

[6] = system: NCI-H2405
How it was run: as §1

[7] = system: NCI-H2087
How it was run: as §1

[8] = system: NCI-H322M
How it was run: as §1

[9] = system: NCI-H520
How it was run: as §1

[10] = system: NCI-H1666
How it was run: as §1

[11] = system: NCI-H2347
How it was run: as §1

[12] = system: RERF-LC-KJ
How it was run: as §1

[13] = system: NCI-H1915
How it was run: as §1

[14] = system: NCI-H23
How it was run: as §1

[15] = system: LC-2-ad
How it was run: as §1

[16] = system: NCI-H2126
How it was run: as §1

[17] = system: LCLC-97TM1
How it was run: as §1

[18] = system: COR-L 105
How it was run: as §1

[19] = system: H3255
How it was run: as §1

[20] = system: PC-14
How it was run: as §1

[21] = system: 201T
How it was run: as §1

## COc1cc(N2CCC(C(N)=O)CC2)ccc1Nc1nc(N)c(Cl)c(Nc2ccccc2S(=O)(=O)C(C)C)n1 [HG-5-88-01] + CC1(C)CCC(c2ccc(Cl)cc2)=C(CN2CCN(c3ccc(C(=O)NS(=O)(=O)c4ccc(N[C@H](CCN5CCOCC5)CSc5ccccc5)c(S(=O)(=O)C(F)(F)F)c4)cc3)CC2)C1 [Navitoclax] (partner 0.5 µM)
[1]; first compound 0.04 µM
  relative viability: 0.749
[1]; first compound 0.1265 µM
  relative viability: 0.555
[1]; first compound 0.4 µM
  relative viability: 0.363
[1]; first compound 1.265 µM
  relative viability: 0.158
[1]; first compound 4 µM
  relative viability: 0.297
[2]; first compound 0.04 µM
  relative viability: 1.19
[2]; first compound 0.1265 µM
  relative viability: 1.26
[2]; first compound 0.4 µM
  relative viability: 1.24
[2]; first compound 1.265 µM
  relative viability: 1.27
[2]; first compound 4 µM
  relative viability: 1.13
[3]; first compound 0.04 µM
  relative viability: 1.05
[3]; first compound 0.1265 µM
  relative viability: 1.09
[3]; first compound 0.4 µM
  relative viability: 0.726
[3]; first compound 1.265 µM
  relative viability: 1.12
[3]; first compound 4 µM
  relative viability: 0.762
[4]; first compound 0.04 µM
  relative viability: 0.997
[4]; first compound 0.1265 µM
  relative viability: 1.04
[4]; first compound 0.4 µM
  relative viability: 1.03
[4]; first compound 1.265 µM
  relative viability: 1.02
[4]; first compound 4 µM
  relative viability: 0.723
[5]; first compound 0.04 µM
  relative viability: 1.22
[5]; first compound 0.1265 µM
  relative viability: 1.05
[5]; first compound 0.4 µM
  relative viability: 1.28
[5]; first compound 1.265 µM
  relative viability: 0.982
[5]; first compound 4 µM
  relative viability: 0.27
[6]; first compound 0.04 µM
  relative viability: 0.99
[6]; first compound 0.1265 µM
  relative viability: 1.03
[6]; first compound 0.4 µM
  relative viability: 0.825
[6]; first compound 1.265 µM
  relative viability: 0.319
[6]; first compound 4 µM
  relative viability: 0.784
[7]; first compound 0.04 µM
  relative viability: 0.902
[7]; first compound 0.1265 µM
  relative viability: 1.06
[7]; first compound 0.4 µM
  relative viability: 1.03
[7]; first compound 1.265 µM
  relative viability: 0.971
[7]; first compound 4 µM
  relative viability: 0.943
[8]; first compound 0.04 µM
  relative viability: 1.16
[8]; first compound 0.1265 µM
  relative viability: 1.21
[8]; first compound 0.4 µM
  relative viability: 1.18
[8]; first compound 1.265 µM
  relative viability: 0.907
[8]; first compound 4 µM
  relative viability: 1.26
[9]; first compound 0.04 µM
  relative viability: 1.09
[9]; first compound 0.1265 µM
  relative viability: 1.09
[9]; first compound 0.4 µM
  relative viability: 0.761
[9]; first compound 1.265 µM
  relative viability: 1.17
[9]; first compound 4 µM
  relative viability: 1.26
[10]; first compound 0.04 µM
  relative viability: 1.14
[10]; first compound 0.1265 µM
  relative viability: 1.01
[10]; first compound 0.4 µM
  relative viability: 1.01
[10]; first compound 1.265 µM
  relative viability: 0.877
[10]; first compound 4 µM
  relative viability: 0.603
[11]; first compound 0.04 µM
  relative viability: 0.786
[11]; first compound 0.1265 µM
  relative viability: 0.863
[11]; first compound 0.4 µM
  relative viability: 0.893
[11]; first compound 1.265 µM
  relative viability: 0.696
[11]; first compound 4 µM
  relative viability: 0.685
[12]; first compound 0.04 µM
  relative viability: 1.05
[12]; first compound 0.1265 µM
  relative viability: 0.846
[12]; first compound 0.4 µM
  relative viability: 0.954
[12]; first compound 1.265 µM
  relative viability: 0.941
[12]; first compound 4 µM
  relative viability: 0.5
[13]; first compound 0.04 µM
  relative viability: 0.771
[13]; first compound 0.1265 µM
  relative viability: 0.783
[13]; first compound 0.4 µM
  relative viability: 0.813
[13]; first compound 1.265 µM
  relative viability: 0.845
[13]; first compound 4 µM
  relative viability: 0.669
[14]; first compound 0.04 µM
  relative viability: 0.945
[14]; first compound 0.1265 µM
  relative viability: 0.932
[14]; first compound 0.4 µM
  relative viability: 0.809
[14]; first compound 1.265 µM
  relative viability: 0.815
[14]; first compound 4 µM
  relative viability: 0.659
[15]; first compound 0.04 µM
  relative viability: 0.444
[15]; first compound 0.1265 µM
  relative viability: 0.45
[15]; first compound 0.4 µM
  relative viability: 0.477
[15]; first compound 1.265 µM
  relative viability: 0.379
[15]; first compound 4 µM
  relative viability: 0.278
[16]; first compound 0.04 µM
  relative viability: 0.88
[16]; first compound 0.1265 µM
  relative viability: 0.882
[16]; first compound 0.4 µM
  relative viability: 0.753
[16]; first compound 1.265 µM
  relative viability: 0.84
[16]; first compound 4 µM
  relative viability: 0.794
[17]; first compound 0.04 µM
  relative viability: 0.374
[17]; first compound 0.1265 µM
  relative viability: 0.689
[17]; first compound 0.4 µM
  relative viability: 0.347
[17]; first compound 1.265 µM
  relative viability: 0.296
[17]; first compound 4 µM
  relative viability: 0.321
[18]; first compound 0.04 µM
  relative viability: 0.644
[18]; first compound 0.1265 µM
  relative viability: 0.833
[18]; first compound 0.4 µM
  relative viability: 0.838
[18]; first compound 1.265 µM
  relative viability: 0.645
[18]; first compound 4 µM
  relative viability: 0.809
[19]; first compound 0.04 µM
  relative viability: 0.506
[19]; first compound 0.1265 µM
  relative viability: 0.467
[19]; first compound 0.4 µM
  relative viability: 0.428
[19]; first compound 4 µM
  relative viability: 0.138
[20]; first compound 0.04 µM
  relative viability: 0.953
[20]; first compound 0.1265 µM
  relative viability: 1.05
[20]; first compound 0.4 µM
  relative viability: 0.995
[20]; first compound 1.265 µM
  relative viability: 1.12
[20]; first compound 4 µM
  relative viability: 0.272
[21]; first compound 0.04 µM
  relative viability: 1.22
[21]; first compound 0.1265 µM
  relative viability: 1.22
[21]; first compound 0.4 µM
  relative viability: 1.28
[21]; first compound 1.265 µM
  relative viability: 1.18
[21]; first compound 4 µM
  relative viability: 1.17
